This is an account of results in patent US20220023325A1, “SPECIFIC TLR4 ANTAGONIST IN THE TREATMENT OF MULTIPLE MYELOMA” (Etablissement Français du Sang, priority 2016, published 2022).

Values joined by “and” are separate entries in the source; they are usually repeats but may differ in a detail not shown here. Identical values can stand only once.

Test [1] has as its system MOLP-6 cells. As to the kind of experiment: MOLP-6 myeloma cells cultured alone, treated with C34. Particulars: MOLP-6 alone, C34 1 μM or 10 μM. It is filed as cell-based, human. On the procedure: (§1) FIG. 9: Number of myeloma cells (MOLP-6)after culture of MOLP-6 alone untreated (NT) or treated with 1 μM or 10 μM of C34 (TLR4 antagonist), or in coculture with a stroma of MSCs from healthy or MM donors, untreated or treated with 1 μM or 10 μM C34.
(§2) To evaluate the role of TLR4 in the MSC/myeloma cell interaction, the inventors used a specific TLR4 antagonist, the C34 compound, marketed by Tocris, and a stroma-dependent myeloma cell line, the MOLP-6 line. Some studies have used stroma-independent myeloma cell lines such as MM1S or RPM18226. In this study, in order to approach the pathology and mimic real interactions between MSC and plasma cells, the inventors used a stroma-dependent cell line for its proliferation. Indeed, during MM (in the establishment and maintenance phases of the disease), myeloma cells strongly adhere to the MSCs of the stroma, which gives chemoresistance and survival signals favoring the evolution of MM.
(§3) Then they treated the healthy MSCs and MM with the C34 before and in co-culture with the MOLP-6. With the healthy stroma, the C34 antagonist (at 1 and 10 μM) has no effect on the growth support of MOLP-6, whereas with the stroma of MM, the TLR4 antagonist affects growth of MOLP-6 cells at the two doses used (33% decrease, FIG. 9).

The test system of test [2] is MOLP-6 cells. As to the kind of experiment: MOLP-6 growth in coculture with stroma of healthy donor MSCs. Type of test: cell-based, human. On the procedure:
as §1, §2
Then they treated the healthy MSCs and MM with the C34 before and in co-culture with the MOLP-6. With the healthy stroma, the C34 antagonist (at 1 and 10 μM) has no effect on the growth support of MOLP-6, whereas with the stroma of MM, the TLR4 antagonist affects growth of MOLP-6 cells at the two doses used (33% decrease, FIG. 9). […]
(§4) After 7 days of culture, they calculated the percent inhibition of plasmocyte growth (FIGS. 11 and 12).

The test system of test [3] is MOLP-6 cells. As to the kind of experiment: MOLP-6 growth in coculture with stroma of MM patient MSCs. Type of test: cell-based, human. The protocol: as §1, §2, §3
The inventors co-cultured MSCs from 4 healthy donors (H) or 5 patients suffering from MM (MYE) as well as stroma-dependent MOLP-6 plasma cells: • without treatment (NT) • in the presence of C34 alone at 1 μM (C34 1 μM), • in the presence of melphalan alone at 100 nM (Mel 100 nM), • in the presence of lenalidomide alone at 100 nM (Len 100 nM), • in the presence of a combination of C34 at 1 μM and melphalan at 100 nM (Mel 100 nM+C34 1 μM), or • in the presence of a combination of C34 at 1 μM and lenalidomide at 100 nM (Len 100 nM+C34 1 μM).
as §4

In test [4] the target is T1, TLR4 (Homo sapiens, UniProt O00206+Q9Y6Y9).
T1 construct: the TLR4 molecule is overexpressed both at the transcriptional level (mRNA) and at the protein level in the MM MSCs; endogenous in cells; host or cells: primary mesenchymal stromal cells (MSCs) of multiple myeloma patients
As to the kind of experiment: Secretion of soluble factors (IGF-1, IL6) by MM patient MSCs after TLR4 stimulation. Type of test: cell-based. From the text:
(§5) FIG. 6: Secretion of IL6 by MSCs from healthy donors or from patients with MM, stimulated or not with LPS.
FIG. 7: Secretion of IL6 by MSCs of healthy donors or from MM patients, whether stimulated or not with Hsp70.
(§6) The inventors also evaluated the effect of TLR4 stimulation on the soluble IGF-1 and IL6 factors involved in the survival and proliferation of myeloma cells.

For test [5], the target named is T1, TLR4. As to the kind of experiment: Adhesion molecule expression on MM patient MSCs after TLR4 stimulation. Type of test: cell-based. From the text: FIG. 3: Expression of different adhesion molecules involved in the interaction with MM plasma cells (CD49d, CD49e, CD54 and CD106) on the surface of MSCs of healthy subjects and patients with MM, stimulated or not with LPS. *p≤0.05**p≤0.01
FIG. 5: Expression of CD54 by MSCs from healthy donors or from patients with MM, whether stimulated or not with Hsp70. p*≤0.05
(§7) The inventors then studied the differential activation of TLR4 in the MSCs of healthy donors or MM patients. They analyzed the effect of stimulation by LPS, the TLR4 reference ligand widely described in the literature, on the expression of several adhesion molecules (CD49d/VLA-4, CD49e/VLA-5, CD54/ICAM-1 and CD106/VCAM-1) involved in the interaction between MSCs and malignant plasma cells. The level of expression (MFI: mean fluorescence intensity) of each molecule is shown in the histogram of FIG. 3.
In order to further investigate the role of TLR4 in the context of MM and to move closer to pathophysiology, the inventors stimulated MSCs with Hsp70, an endogenous ligand of TLR4 actively released in the MM microenvironment and secreted by the cell line of MM MOLP-6 (up to 200 ng/ml) (FIG. 4). In addition, this endogenous ligand has been described in the literature to have a chemoprotective role for MM malignant plasma cells (Nimmanapalli et al (2008) Br. Haematol 142: 551-561). […] Indeed Hsp-70 is a monomeric molecule and therefore induces a less important stimulation than LPS (multimeric). Nevertheless, once again, the MM MSCs respond better than the healthy MSCs.

Test [6] deals with T1, TLR4. As to the kind of experiment: Secretion of soluble factors (IGF-1, IL6) by healthy donor MSCs after TLR4 stimulation. Type of test: cell-based.
From the text: as §5, §6

The target of test [7] is T1, TLR4. As to the kind of experiment: Adhesion molecule expression on healthy donor MSCs after TLR4 stimulation. Type of test: cell-based.
From the text: as §7, with “FIG. 3: Expression of different adhesion molecules involved in the interaction with MM plasma cells (CD49d, CD49e, CD54 and CD106) on the surface of MSCs of healthy subjects and patients with MM, stimulated or not with LPS. *p≤0.05**p≤0.01 FIG. 5: Expression of CD54 by MSCs from healthy donors or from patients with MM, whether stimulated or not with Hsp70. p*≤0.05 The inventors” for “The inventors”

The mark [8] stands for this setting: MM MSCs, stimulation with Hsp70.

T1 sequence (O00206 24-839): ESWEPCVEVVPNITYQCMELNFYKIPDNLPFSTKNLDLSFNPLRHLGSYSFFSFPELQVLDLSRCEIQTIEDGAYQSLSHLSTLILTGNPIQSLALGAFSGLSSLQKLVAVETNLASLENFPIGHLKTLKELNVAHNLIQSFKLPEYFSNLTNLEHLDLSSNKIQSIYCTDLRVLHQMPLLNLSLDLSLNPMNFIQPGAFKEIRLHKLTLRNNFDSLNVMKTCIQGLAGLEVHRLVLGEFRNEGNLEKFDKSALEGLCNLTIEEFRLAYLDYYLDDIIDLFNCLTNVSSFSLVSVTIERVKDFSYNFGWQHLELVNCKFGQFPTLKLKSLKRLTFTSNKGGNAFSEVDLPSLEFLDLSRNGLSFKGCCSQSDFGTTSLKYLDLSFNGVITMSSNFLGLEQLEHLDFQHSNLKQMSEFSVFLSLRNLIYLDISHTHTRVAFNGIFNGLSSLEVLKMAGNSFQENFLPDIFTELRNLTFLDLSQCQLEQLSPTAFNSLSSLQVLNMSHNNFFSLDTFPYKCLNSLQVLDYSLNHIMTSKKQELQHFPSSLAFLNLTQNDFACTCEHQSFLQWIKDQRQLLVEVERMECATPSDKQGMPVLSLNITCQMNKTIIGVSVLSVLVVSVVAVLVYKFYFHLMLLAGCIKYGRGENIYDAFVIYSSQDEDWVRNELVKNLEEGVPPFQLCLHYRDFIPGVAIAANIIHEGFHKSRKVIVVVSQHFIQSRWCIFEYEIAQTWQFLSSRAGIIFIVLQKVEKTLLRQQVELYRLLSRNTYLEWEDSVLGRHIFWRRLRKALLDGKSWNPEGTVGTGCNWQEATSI
T1 sequence (Q9Y6Y9 17-160 limits assumed): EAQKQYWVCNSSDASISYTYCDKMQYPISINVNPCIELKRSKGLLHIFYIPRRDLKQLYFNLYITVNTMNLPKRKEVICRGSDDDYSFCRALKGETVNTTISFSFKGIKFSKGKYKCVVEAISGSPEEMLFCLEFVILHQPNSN

`CC(=O)N[C@H]1[C@@H](OC(C)C)O[C@H](COC(C)=O)[C@@H](OC(C)=O)[C@@H]1OC(C)=O` [C34]: the “direct effect on MOLP-6 cells (number of myeloma cells)” value in test [1] is recorded as “did not directly affect”. In addition, the “effect on inhibition of plasmocyte growth in the presence of chemotherapeutic agents” value in test [2] (healthy MSC/MOLP-6 cocultures, C34 1 μM + melphalan or lenalidomide 100 nM, 7 days) is recorded as “no significant synergistic effect”. In test [2] (healthy stroma, C34 at 1 and 10 μM), the “effect on the growth support of MOLP-6” value is listed as “no effect”. For the same compound, in test [3] (MM MSC coculture, C34 1 μM + lenalidomide 100 nM, 7 days), the “effect on inhibition of proliferation of MM plasmocytes in combination with lenalidomide” value was “synergistic effect”. In addition, the “effect on inhibition of proliferation of MM plasmocytes in combination with melphalan” value in test [3] (MM MSC coculture, C34 1 μM + melphalan 100 nM, 7 days) is “synergistic effect”. Also, in test [3] (stroma of MM, C34 at the two doses used (1 and 10 μM)), the “decrease of growth of MOLP-6 cells” value is on record as 33%.

Regarding “Hsp70: endogenous ligand of TLR4, chaperone heat shock protein 70”, in test [4] (setting [8]), the IL6 secretion entry is “increases”. The CD54 expression result in test [5] (setting [8]) was “significantly increased”.

As for lipopolysaccharide [LPS], the IGF-1 secretion result is recorded as “no effect” in test [4] (MM MSCs, LPS stimulation) and “no effect” in test [6] (healthy MSCs, LPS stimulation). Further, the “secretion of IL6” value in test [4] (MSCs of MM after LPS stimulation (unstimulated 0.08)) came to 0.7 pg/cell; in test [6] (healthy MSCs after LPS stimulation (unstimulated 0.02)) it was 0.1 pg/cell. Besides, the “expression of CD49e” value is listed as “significantly increased” in test [5] (MM MSC, LPS stimulation) and “significantly increased” in test [7] (healthy MSC, LPS stimulation). The “expression of CD106” value is reported as “no effect” in test [5] (MM MSC, LPS stimulation) and “no effect” in test [7] (healthy MSC, LPS stimulation). Also, the “expression of CD49d” value is “no effect” in test [5] (MM MSC, LPS stimulation) and “no effect” in test [7] (healthy MSC, LPS stimulation). Further, the “CD54 MFI” value in test [5] (MSCs of MM after LPS stimulation (basal 4.3)) is 215.9 and 216; in test [7] (healthy MSCs after LPS stimulation (basal 9.6)), 148.7 and 149.
